In publication PMC7450938, “Prenatal to early postnatal neurotrophic treatment prevents Alzheimer-like behavior and pathology in mice” (Alzheimer's Research & Therapy, 2020):

Experiments:
[1] = no method and no reference printed for this sentence, next sentence ref 22, cited from earlier work
Method: P021 is quite stable in artificial gastric juice (~ 90% during 30 min) and in artificial intestinal juice (> 95% during 120 min).

3xTg-AD mice [2] = assay: Morris water maze; type: in vivo, mouse; conditions: ~4 months
Method: Pregnant 3xTg-AD and wild-type (WT) mice were treated with compound P021 in mouse chow, or as control with vehicle feed from gestational day 8 (E8) till their offspring/pups reached PND21, at which point the offspring were separated from their mother and put on normal mouse chow (Fig. 1). There were four study groups of mice, as follows: offspring of WT treated with vehicle diet (WT-Vh, n = 10), offspring of WT treated with […] diet (WT-[…], n = 17), offspring of 3xTg-AD treated with vehicle diet (3xTg-Vh, n = 12), and offspring of 3xTg-AD treated with […] diet (3xTg-[…], n = 18). Elevated plus maze, novel object recognition test, and Morris water maze were carried out consecutively from postnatal day 90 with all of mice. About 50% (4 animals/group) of the female offspring (n = 7-8 animals/group) were sacrificed at 4 months of age and the remaining 50% (3-4 animals/group) at 22 months of age. Left cerebral hemisphere homogenate was used for biochemical analysis and right cerebral hemisphere for immunohistochemical studies. We treated 2- to 3-month-old pregnant 3xTg-AD and WT mothers with compound P021 in mouse chow, or with vehicle feed as control at E8 until their offspring/pups reached PND21, at which point the offspring were separated and put on standard mouse chow (Fig. 1). Treatment was administered as 60 nmol peptide/g formulated diet (Research Diets; New Brunswick, NJ, USA). The vehicle-treated control animals received the same diet but without the peptide. On average, each mouse consumed ~ 2.7 g diet/day. The Morris water maze task was used to evaluate spatial learning and memory of the mice. A total of 57 mice were subjected to the Morris water maze task at about 4 months of age. The test was performed in a circular white pool (with a diameter of 180 cm and a height of 60 cm) filled with nontoxic white dye-tinted water and maintained at room temperature (20 ± 1 °C). The maze was designed with two virtual principal axes, with each line bisecting the maze perpendicular to the other one to divide the maze into four equal quadrants. […]

3xTg-AD mice [3] = assay: Novel object recognition test; type: in vivo, mouse; conditions: 3xTg-AD offspring, 3-4 months; P021 diet 60 nmol/g E8-PND21; 20-min delay, 5-min test phase; 3xTg-Vh vs 3xTg-P021 P = 0.0007
Method: Pregnant 3xTg-AD and wild-type (WT) mice were treated with compound P021 in mouse chow, or as control with vehicle feed from gestational day 8 (E8) till their offspring/pups reached PND21, at which point the offspring were separated from their mother and put on normal mouse chow (Fig. 1). There were four study groups of mice, as follows: offspring of WT treated with vehicle diet (WT-Vh, n = 10), offspring of WT treated with P021 diet (WT-P021, n = 17), offspring of 3xTg-AD treated with vehicle diet (3xTg-Vh, n = 12), and offspring of 3xTg-AD treated with P021 diet (3xTg-P021, n = 18). Elevated plus maze, novel object recognition test, and Morris water maze were carried out consecutively from postnatal day 90 with all of mice. About 50% (4 animals/group) of the female offspring (n = 7–8 animals/group) were sacrificed at 4 months of age and the remaining 50% (3–4 animals/group) at 22 months of age. […]
The novel object recognition memory task has been used to evaluate hippocampus-dependent memory in rodents through an evaluation of the differences in the exploration time of novel and familiar objects. […] The object discrimination index (DI) during the test phase was calculated as DI = [(time spent exploring the new object − time spent exploring the old object)/(time spent exploring both old and new objects)] × 100%.

## Ac-DGGL^AG-NH2 [P021, 4-mer CNTF small molecule peptide mimetic to which adamantylated glycine was added at the C-terminal]
[1]; during 30 min
  stability in artificial gastric juice: ~ 90%
[1]; during 120 min
  stability in artificial intestinal juice: > 95%
3xTg-AD mice [2]; 3xTg-AD offspring, P021 diet E8-PND21, 4 training days, three-way ANOVA treatment P = 0.1088, t test 3xTg-Vh vs 3xTg-P021 P < 0.05
  escape latency to reach the hidden platform, acquisition phase: did not prevent it as determined by the three-way ANOVA but showed a clear tendency as determined by the two-tailed t test
3xTg-AD mice [2]; 3xTg-AD offspring, P021 diet E8-PND21, probe 24 h after last training, 3xTg-Vh vs 3xTg-P021 P = 0.0132
  latency to first entrance into the target zone, probe trial: decreased the latency significantly
3xTg-AD mice [2]; among WT-Vh, WT-P021, 3xTg-Vh, 3xTg-P021 groups
  swim speed and cued trial: no significant difference
3xTg-AD mice [3]
  discrimination index in the test phase: improved
